Results: PubChem BioAssay (NCI)
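Following 48 hours of exposure in 96-well plates, responses at five concentrations were used to interpolate endpoints linearly. GI50: concentration for 50% inhibition of growth. TGI marks complete inhibition of growth.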 *1 amine or outer side, *2 acyl side, *3 side chain or, on linkers, in order; H or OH if unused. Where a SMILES comes first, the peptide text is derived from it. [ ]: non-standard residue; d: D form. X38 = CSCCCC(N[*:1])C(=O)[*:2]

Columns and labels:
Test in all cases: NCI anticancer screen, dose series, 48 h
[1] = system: NCI-H226 lung
[2] = system: NCI-H23 lung
[3] = system: HOP-92 NSCLC
[4] = system: BT-549 breast
[5] = system: UACC-257 melanoma
[6] = system: MDA-MB-231 breast
[7] = system: SNB-75 CNS
[8] = system: SF-539 CNS
[9] = system: DU-145 prostate
[10] = system: TK-10 renal
[11] = system: ACHN renal
[12] = system: SR leukemia
[13] = system: SK-MEL-28 melanoma
[14] = system: OVCAR-5 ovarian
[15] = system: SK-OV-3 ovarian
[16] = system: RPMI-8226 leukemia
[17] = system: MDA-MB-435
[18] = system: PC-3 prostate
[19] = system: SN12C renal
[20] = system: SK-MEL-2 melanoma
[21] = system: EKVX NSCLC
[22] = system: M14 melanoma
[23] = system: SW-620 colon
[24] = system: MCF7 breast
[25] = system: MOLT-4 leukemia
[26] = system: SNB-19 CNS
[27] = system: HT29 colon
[28] = system: OVCAR-8 ovarian
[29] = system: HCT-116 colon
[30] = system: K-562 leukemia
[31] = system: MALME-3M melanoma
[32] = system: OVCAR-3 ovarian
[33] = system: RXF 393 renal
[34] = system: LOX IMVI melanoma
[35] = system: NCI-H460 lung
[36] = system: CCRF-CEM leukemia
[37] = system: A549 NSCLC
[38] = system: 786-0 renal
[39] = system: U251 CNS
[40] = system: KM12 colon
[41] = system: OVCAR-4 ovarian
[42] = system: A498 renal
[43] = system: UO-31 renal
[44] = system: COLO 205 colon
[45] = system: IGROV1 ovarian
[46] = system: HCC-2998 colon
[47] = system: SK-MEL-5 melanoma
[48] = system: T-47D breast
[49] = system: CAKI-1 renal
[50] = system: NCI-H522 lung
[51] = system: HCT-15 colon
[52] = system: UACC-62 melanoma
[53] = system: SF-295 CNS
[54] = system: HOP-62 NSCLC

SMILES: CSCCCC(NC(=O)CNC(=O)C1CCCN1C(=O)C(Cc1ccc(O)cc1)NC(=O)C(Cc1ccccc1)NC(=O)C(CCCN=C(N)N)NC(=O)C(CC(=O)O)NC(=O)C1CCCN1C(=O)C(CC(=O)O)NC(=O)C1CCCN1C(=O)C1CCCN1C(=O)CN)C(N)=O (stereo not drawn) (H-GPPDPDRFYPG[X38]-NH2; configuration not given here)
- TGI [1]: > 50 µM
- TGI [2]: > 50 µM
- TGI [3]: > 50 µM
- TGI [4]: > 50 µM
- TGI [5]: > 50 µM

SMILES: CCCCCCCCCCCCCC1=NCC[N+]1(CCO)Cc1ccccc1 (stereo not drawn)
- GI50 [6]: 1.54 µM
- TGI [6]: 3.14 µM
- GI50 [7]: 1.45 µM
- TGI [7]: 2.81 µM
- GI50 [8]: 1.68 µM
- TGI [8]: 3.16 µM
- GI50 [9]: 1.77 µM
- TGI [9]: 3.23 µM
- GI50 [10]: 1.71 µM
- TGI [10]: 3.28 µM
- GI50 [11]: 1.63 µM
- TGI [11]: 3.1 µM
- GI50 [5]: 2 µM
- TGI [5]: 3.72 µM
- GI50 [12]: 1.51 µM
- TGI [12]: 4.2 µM
- GI50 [13]: 1.7 µM
- TGI [13]: 3.22 µM
- GI50 [14]: 1.57 µM
- TGI [14]: 3.07 µM
- GI50 [15]: 1.86 µM
- TGI [15]: 3.8 µM
- GI50 [16]: 1.85 µM
- TGI [16]: 4.8 µM
- GI50 [17]: 1.69 µM
- TGI [17]: 3.18 µM
- GI50 [18]: 1.64 µM
- TGI [18]: 3.23 µM

SMILES: C=C(CNCCc1ccc(O)cc1)[C@@H]1CC[C@]2(CO)CC[C@]3(C)[C@H](CC[C@@H]4[C@@]5(C)CCC(=O)C(C)(C)[C@@H]5CC[C@]43C)[C@@H]12
- GI50 [19]: 1.65 µM
- TGI [19]: 3.12 µM
- GI50 [20]: 1.75 µM
- TGI [20]: 3.27 µM
- GI50 [1]: 1.62 µM
- TGI [1]: 3.64 µM
- GI50 [21]: 1.7 µM
- TGI [21]: 3.24 µM
- GI50 [22]: 1.72 µM
- TGI [22]: 3.24 µM
- GI50 [23]: 1.77 µM
- TGI [23]: 3.76 µM
- GI50 [6]: 1.76 µM
- TGI [6]: 3.2 µM
- GI50 [24]: 1.87 µM
- TGI [24]: 3.84 µM
- GI50 [2]: 1.69 µM
- TGI [2]: 3.26 µM
- GI50 [25]: 1.96 µM
- TGI [25]: 4.47 µM
- GI50 [7]: 1.37 µM
- TGI [7]: 2.74 µM
- GI50 [8]: 1.75 µM
- TGI [8]: 3.17 µM
- GI50 [26]: 1.62 µM
- TGI [26]: 3.02 µM
- GI50 [27]: 1.62 µM
- TGI [27]: 3.08 µM
- GI50 [28]: 1.73 µM
- TGI [28]: 3.16 µM
- GI50 [29]: 1.67 µM
- TGI [29]: 3.03 µM
- GI50 [9]: 1.77 µM
- TGI [9]: 3.15 µM
- GI50 [10]: 1.73 µM
- TGI [10]: 3.19 µM
- GI50 [30]: 1.86 µM
- TGI [30]: 4.72 µM
- GI50 [31]: 1.65 µM
- TGI [31]: 3.25 µM
- GI50 [32]: 1.67 µM
- TGI [32]: 3.08 µM
- GI50 [33]: 1.28 µM
- TGI [33]: 2.59 µM
- GI50 [34]: 1.6 µM
- TGI [34]: 2.97 µM
- GI50 [11]: 1.61 µM
- TGI [11]: 2.96 µM
- GI50 [35]: 1.66 µM
- TGI [35]: 3.28 µM
- GI50 [3]: 1.01 µM
- TGI [3]: 2.26 µM
- GI50 [36]: 1.92 µM
- TGI [36]: 5.26 µM
- GI50 [37]: 1.63 µM
- TGI [37]: 2.99 µM
- GI50 [38]: 1.6 µM
- TGI [38]: 2.95 µM
- GI50 [39]: 1.56 µM
- TGI [39]: 2.92 µM
- GI50 [4]: 1.71 µM
- TGI [4]: 3.29 µM
- GI50 [40]: 1.82 µM
- TGI [40]: 3.61 µM
- GI50 [41]: 1.65 µM
- TGI [41]: 3.12 µM
- GI50 [5]: 1.78 µM
- TGI [5]: 3.26 µM
- GI50 [12]: 1.3 µM
- TGI [12]: 4.17 µM
- GI50 [13]: 1.7 µM
- TGI [13]: 3.14 µM
- GI50 [42]: 1.38 µM
- TGI [42]: 2.77 µM
- GI50 [43]: 1.3 µM
- TGI [43]: 2.58 µM
- GI50 [44]: 1.73 µM
- TGI [44]: 3.32 µM
- GI50 [14]: 1.59 µM
- TGI [14]: 3 µM
- GI50 [45]: 1.68 µM
- TGI [45]: 3.3 µM
- GI50 [46]: 1.64 µM
- TGI [46]: 3.06 µM
- GI50 [15]: 1.79 µM
- TGI [15]: 3.51 µM
- GI50 [16]: 1.79 µM
- TGI [16]: 4.45 µM
- GI50 [47]: 1.63 µM
- TGI [47]: 2.99 µM
- GI50 [17]: 1.74 µM
- TGI [17]: 3.22 µM
- GI50 [48]: 1.72 µM
- TGI [48]: 4 µM
- GI50 [49]: 1.57 µM
- TGI [49]: 2.96 µM
- GI50 [50]: 1.69 µM
- TGI [50]: 3.23 µM
- GI50 [51]: 1.47 µM
- TGI [51]: 2.89 µM
- GI50 [18]: 1.32 µM
- TGI [18]: 2.69 µM
- GI50 [52]: 1.69 µM
- TGI [52]: 3.09 µM
- GI50 [53]: 1.74 µM
- TGI [53]: 3.22 µM
- GI50 [54]: 1.58 µM
- TGI [54]: 3.11 µM

SMILES: Nc1ccn(C2CSC(CO)O2)c(=O)n1 (stereo not drawn)
- GI50 [2]: > 1000 µM
- TGI [2]: > 1000 µM
